Reference: patent US12338237B2, “Derivatives having 1,2,3,4-tetrahydronaphthalene moiety or pharmaceutically acceptable salt thereof and pharmaceutical compositions comprising the same” (YUHAN CORPORATION, priority 2019, dated 2025)
pIC50: −log10 of the molar value. Where two headings read alike, the source gives them in different places.

Key:
[1] = target: glucosylceramide synthase (GCS) (Homo sapiens (Human), UniProt Q16739); assay: Evaluation of inhibitory activities against GCS (enzyme reaction with A549 cell lysate, NBD C6-ceramide, HPLC fluorescence); format: biochemical; conditions: GCS activity in A549 cell lysate, 37° C. for 90 minutes
Procedure, shortened: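 Lysate of A549 cells in 50 mM HEPES pH 7.3 incubated with test compound and NBD C6-ceramide at 37 °C for 90 min; lipids extracted with chloroform/methanol and GlcCer and ceramide peaks quantified by HPLC fluorescence. Activity from GlcCer area fraction, normalised between DMSO and ibiglustat controls.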

GM1 production = assay: cells; format: cell-based

Sequence of glucosylceramide synthase (GCS) (Q16739 whole entry, looked up): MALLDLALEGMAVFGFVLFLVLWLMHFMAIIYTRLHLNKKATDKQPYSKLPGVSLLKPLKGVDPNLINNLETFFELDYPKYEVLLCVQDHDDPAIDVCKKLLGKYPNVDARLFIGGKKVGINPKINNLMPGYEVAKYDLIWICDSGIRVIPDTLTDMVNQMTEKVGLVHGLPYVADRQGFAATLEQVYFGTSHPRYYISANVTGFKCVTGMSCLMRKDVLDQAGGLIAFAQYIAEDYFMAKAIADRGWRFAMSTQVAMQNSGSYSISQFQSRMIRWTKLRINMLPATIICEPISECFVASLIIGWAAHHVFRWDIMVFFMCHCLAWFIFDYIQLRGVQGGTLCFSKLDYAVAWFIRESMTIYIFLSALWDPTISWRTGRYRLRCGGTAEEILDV

| Compound | pIC50 [1] | pIC50 (GM1 production; Homo sapiens, Jurkat, 72 h) | pIC50 (GM1 production; read-out: IC50) |
| --- | --- | --- | --- |
| O=C(NC1c2ccc(-c3ccc(C(F)(F)F)cc3)cc2CCC12CC2)O[C@@H]1CN2CCC1CC2 (stereo partly drawn) [Example 188, (S)-quinuclidin-3-yl (6′-(4-(trifluoromethyl)phenyl)-3′,4′-dihydro-1′H-spiro[cyclopropane-1,2′-naphthalen]-1′-yl)carbamate] | 7.79 | 7.47 |  |
| CC(C)(C)c1cccc(-c2ccc3c(c2)CCCC3NC(=O)O[C@@H]2CN3CCC2CC3)c1 (stereo partly drawn) [Example 39, (S)-quinuclidin-3-yl (6-(3-(tert-butyl)phenyl)-1,2,3,4-tetrahydronaphthalen-1-yl)carbamate] | 8.54 | 6.07 |  |
| COc1ccccc1-c1ccc2c(c1)CCCC2NC(=O)O[C@@H]1CN2CCC1CC2 (stereo partly drawn) [Example 48, (S)-quinuclidin-3-yl (6-(2-methoxyphenyl)-1,2,3,4-tetrahydronaphthalen-1-yl)carbamate] | 8.52 | 6.44 |  |
| O=C(NC1CCCc2cc(-c3ccc4c(c3)OCC4)ccc21)O[C@@H]1CN2CCC1CC2 (stereo partly drawn) [Example 44, (S)-quinuclidin-3-yl (6-(2,3-dihydrobenzofuran-6-yl)-1,2,3,4-tetrahydronaphthalen-1-yl)carbamate] | 8.12 | 6.32 |  |
| CCCOc1c(C)cc(-c2cc3c(cc2F)C(NC(=O)O[C@@H]2CN4CCC2CC4)C(C)(C)CC3)cc1C (stereo partly shown) [Example 228] | 8.87 |  | 7.90 |
| Cc1ccccc1-c1ccc2c(c1)C(NC(=O)O[C@@H]1CN3CCC1CC3)CCC2 (stereo partly drawn) [Example 74, (S)-quinuclidin-3-yl (7-(o-tolyl)-1,2,3,4-tetrahydronaphthalen-1-yl)carbamate] | 7.84 | 7.26 |  |
| (S)-quinuclidin-3-yl (7-(3-(chlorophenyl)-1,2,3,4-tetrahydronaphthalen-1-yl)carbamate [Example 59] | 7.72 |  | 6.81 |
| COCOc1cccc(-c2ccc3c(c2)CCC2(CC2)C3NC(=O)O[C@@H]2CN3CCC2CC3)c1 (stereo partly drawn) [Example 198, (S)-quinuclidin-3-yl (6′-(3-(methoxymethoxy)phenyl)-3′,4′-dihydro-1′H-spiro[cyclopropane-1,2′-naphthalen]-1′-yl)carbamate] | 8.29 | 8.06 |  |
| COCOc1ccccc1-c1ccc2c(c1)CCC(C)(C)C2NC(=O)O[C@@H]1CN2CCC1CC2 (stereo partly drawn) [Example 115, (S)-quinuclidin-3-yl (6-(2-(methoxymethoxy)phenyl)-2,2-dimethyl-1,2,3,4-tetrahydronaphthalen-1-yl)carbamate] | 8.93 | 9.25 |  |
| CCOc1cccc(-c2ccc3c(c2)CCC(C)(C)C3NC(=O)O[C@@H]2CN3CCC2CC3)c1 (stereo partly drawn) [Example 122, (S)-quinuclidin-3-yl (6-(3-ethoxyphenyl)-2,2-dimethyl-1,2,3,4-tetrahydronaphthalen-1-yl)carbamate] | 8.47 | 9.11 |  |
| CC(C)c1ccc(-c2ccc3c(c2)CCCC3NC(=O)O[C@@H]2CN3CCC2CC3)cc1 (stereo partly drawn) [Example 34, (S)-quinuclidin-3-yl (6-(4-isopropylphenyl)-1,2,3,4-tetrahydronaphthalen-1-yl)carbamate] | 8.21 | 6.53 |  |
| COCCOc1ccccc1-c1ccc2c(c1)CCCC2NC(=O)O[C@@H]1CN2CCC1CC2 (stereo partly drawn) [Example 29, (S)-quinuclidin-3-yl (6-(2-(2-methoxyethoxy)phenyl)-1,2,3,4-tetrahydronaphthalen-1-yl)carbamate] | 8.07 | 6.81 |  |
| COCCOc1ccc(-c2ccc3c(c2)CCC(C)(C)C3NC(=O)O[C@@H]2CN3CCC2CC3)cc1 (stereo partly drawn) [Example 110, (S)-quinuclidin-3-yl (6-(4-(2-methoxyethoxy)phenyl)-2,2-dimethyl-1,2,3,4-tetrahydronaphthalen-1-yl)carbamate] | 9.19 | 9.54 |  |
| CC1(C)CCc2ccc(-c3ccccc3F)cc2C1NC(=O)O[C@@H]1CN2CCC1CC2 (stereo partly drawn) [Example 159, (S)-quinuclidin-3-yl (7-(2-fluorophenyl)-2,2-dimethyl-1,2,3,4-tetrahydronaphthalen-1-yl)carbamate] | 7.96 | 7.30 |  |
